Measured values as given in PMC11220870, “From X-ray crystallographic structure to intrinsic thermodynamics of protein–ligand binding using carbonic anhydrase isozymes as a model system” (IUCrJ, 2024).

Key:
CA IX [1] = tested on: CA IX; parameters: method as in earlier work; conditions: depending on the isozyme, ref Dudutienė et al., 2014, Matulienė et al., 2022, Zakšauskas et al.; cited from earlier work
CA IX [2] = molecular target: T1, CA IX (Homo sapiens, UniProt Q16790); experiment: Intrinsic Gibbs energy of binding (TSA); conditions: 37°C, Fig. 5
T1 construct: made in house

CA I = CA I (Homo sapiens, UniProt P00915); conditions: intrinsic, 37°C
Experimental: Intrinsic thermodynamic parameters of all pairs were determined by TSA and ITC (for calculations we used Gibbs energy obtained by TSA and enthalpy from ITC measurements).

Chain of CA I (P00915 whole entry): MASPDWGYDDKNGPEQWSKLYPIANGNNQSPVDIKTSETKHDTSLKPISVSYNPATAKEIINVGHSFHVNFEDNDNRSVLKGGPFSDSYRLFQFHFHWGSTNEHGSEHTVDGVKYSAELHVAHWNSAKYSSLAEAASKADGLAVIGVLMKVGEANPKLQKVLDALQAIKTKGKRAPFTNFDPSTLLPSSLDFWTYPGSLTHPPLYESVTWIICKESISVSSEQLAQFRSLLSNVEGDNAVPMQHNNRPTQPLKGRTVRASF

intrinsic standard Gibbs energy of binding (CA IX [2]) [kJ/mol] | ΔHint (CA I) [kJ/mol] | Compound | selectivity toward CA IX over remaining isozymes (CA IX [1])
-75.0 |  | COC(=O)c1cc(S(N)(=O)=O)c(SC2CCCCC2)cc1Cl [EA2-3] | a hundred- to a million-fold
 | -74.9 | CCCSc1c(F)c(F)c(S(N)(=O)=O)c(F)c1F [VD12-05] | 
